Test results taken from PubChem BioAssay (NCI).
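Briefly, cells in 96-well plates were exposed to five compound concentrations for 48 h, and endpoints were estimated by linear interpolation. Abbreviation: GI50, concentration required for 50% inhibition of growth. At the TGI there is no net growth.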

Legend:
Test in all cases: NCI anticancer screen, dose series, 48 h
HS 578T breast = system: HS 578T breast
HCT-15 colon = system: HCT-15 colon
HOP-62 NSCLC = system: HOP-62 NSCLC
SNB-19 CNS = system: SNB-19 CNS
UO-31 renal = system: UO-31 renal
CCRF-CEM leukemia = system: CCRF-CEM leukemia
NCI-H226 lung = system: NCI-H226 lung
MALME-3M melanoma = system: MALME-3M melanoma
MDA-MB-231 breast = system: MDA-MB-231 breast
DLD-1 colon = system: DLD-1 colon
DMS 114 small cell lung = system: DMS 114 small cell lung

SMILES	TGI (HS 578T breast) [µM]	TGI (HCT-15 colon) [µM]	TGI (HOP-62 NSCLC) [µM]	TGI (SNB-19 CNS) [µM]	TGI (UO-31 renal) [µM]	TGI (CCRF-CEM leukemia) [µM]	TGI (NCI-H226 lung) [µM]	TGI (MALME-3M melanoma) [µM]	TGI (MDA-MB-231 breast) [µM]	GI50 (HS 578T breast) [µM]	GI50 (HCT-15 colon) [µM]	GI50 (HOP-62 NSCLC) [µM]	GI50 (UO-31 renal) [µM]	GI50 (CCRF-CEM leukemia) [µM]	GI50 (NCI-H226 lung) [µM]	GI50 (MALME-3M melanoma) [µM]	GI50 (MDA-MB-231 breast) [µM]	TGI (DLD-1 colon) [µM]	TGI (DMS 114 small cell lung) [µM]	GI50 (SNB-19 CNS) [µM]
CCCCCCNC(=O)c1cc(CCc2cc(O)ccc2O)ccc1O	26.4	12.8	25	> 50.6	2.98	> 100	19.8	6.47	5.8	–	–	–	–	–	–	–	–	–	–	–
C/C(=C\c1ccccc1)C(=O)NCc1ccc(C(=O)NCCC(C)C)cc1	–	> 100	48	> 100	> 100	> 100	> 100	> 100	> 100	–	–	–	–	–	–	–	–	–	–	–
CN(c1cc2ncc(=O)[nH]c2cc1NC(N)=NCc1ccc(Cl)cc1)C1CCCCC1	16	15.4	19.6	–	15.8	15.6	18	17.5	9.04	6.53	8.27	8.84	8.21	6.33	8.1	8.5	2.46	–	–	–
O=C(C=P(c1ccccc1)(c1ccccc1)c1ccccc1)c1cccc(-c2cccc([N+](=O)[O-])c2)c1	> 100	21.1	> 100	> 100	20.3	7.63	–	9.28	7.04	–	–	–	–	–	–	–	–	–	–	–
CSc1nc(NC2OCC(OC(C)=O)C(OC(C)=O)C2OC(C)=O)c(N=C(C)C(C)=O)c(=O)[nH]1 (centres undefined)	–	> 100	–	> 100	–	> 100	–	> 100	–	–	–	–	–	–	–	–	–	> 100	> 100	–
Cc1nc2c(n1C)C(=O)c1nc(CBr)[nH]c(=O)c1C2=O	–	> 100	–	> 100	> 100	> 100	–	–	–	–	–	–	–	–	–	–	–	> 100	> 100	–
COc1cc(/C=N/n2c(Cc3ccc(Cl)cc3)n[nH]c2=O)cc(OC)c1OC	27.2	> 100	> 100	> 100	> 100	> 100	> 100	> 100	> 100	–	–	–	–	–	–	–	–	–	–	–
N#CC(c1nc2ccccc2s1)c1ncnc(Cl)c1[N+](=O)[O-] (centres undefined)	–	35.8	97.2	> 100	91.3	> 100	83.3	41.8	92.1	–	–	–	–	–	–	–	–	–	–	–
COc1ccc(C2CC(c3cccc(Nc4ccncc4)c3)=NN2c2ccc(Cl)cc2)cc1 (centres undefined)	3.68	3.58	–	3.23	2.51	7.74	7.73	3.15	2.65	1.77	1.88	–	1.2	2.5	2.27	1.59	1.33	–	–	1.66
N/C(=N\S(=O)(=O)c1cccc2nsnc12)Nc1ccc(Cl)cc1	68.9	> 100	> 100	> 100	> 100	–	> 100	40.2	75.9	–	–	–	–	–	–	–	–	–	–	–
CC(C)(C)OC(=O)NCC(=O)NC1c2ccsc2/C(=N/O)[C@H]1O (some centres undefined)	–	> 100	> 100	> 100	> 100	> 100	> 100	> 100	> 100	–	–	–	–	–	–	–	–	–	–	–
N#Cc1c(NC(=S)Nc2ccc(Cl)cc2)sc2c1CCCC2	–	> 100	–	> 100	> 100	–	> 100	> 100	> 100	–	–	–	–	–	–	–	–	–	–	–
COCO[C@@H]1C[C@H]2C(=O)N(COC)c3ccccc3C(=O)N2C1	> 100	> 100	> 100	> 100	> 100	> 100	> 100	> 100	> 100	–	–	–	–	–	–	–	–	–	–	–
O=C1N(c2ccccc2)C2(c3ccccc3)CC3CCCC13S2 (centres undefined)	> 100	> 100	> 100	> 100	> 100	> 100	> 100	> 100	> 100	–	–	–	–	–	–	–	–	–	–	–
C=CCc1cc(-c2cc(CC=C)c(O)c(CNC)c2)cc(CNC)c1O	–	30.2	33.4	26.1	25.8	57	31	33.6	–	–	–	–	–	–	–	–	–	29.3	30.4	–
CC(=O)Oc1c(C)c2c(O)c3c1C1=C(OCOC1=C(C)C3=O)/C(C)=C\C(C)(O)C(O)C(C)C(O)C1C(=O)OC(C(C)C1O)C(C)(O)/C=C/C=C(C)C(=O)N2 (centres undefined)	> 100	> 100	> 100	> 100	46.5	61.4	75.7	> 100	> 100	–	–	–	–	–	–	–	–	–	–	–
COC(=O)c1cc2c3c(cc(N(C)C)c2[nH]1)N(C(=O)c1cc2cc(OC)c(OC)c(OC)c2[nH]1)CC3CCl (centres undefined)	–	19.2	0.00774	0.0814	–	0.0538	0.0223	< 0.0025	0.0132	–	–	–	–	–	–	–	–	–	–	–
COc1ccc2c(c1)CCN=C2Cc1cc(OC)c(OC)cc1CCCl	81.7	–	49.6	> 100	> 100	> 100	> 100	73.8	> 100	–	–	–	–	–	–	–	–	–	–	–
C#CCn1ncc2c(SC)ncnc21	> 100	> 100	> 100	> 100	> 100	> 100	> 100	> 100	> 100	–	–	–	–	–	–	–	–	–	–	–
O=S1(=O)C(c2ccccc2)C(N2CCCCC2)C1C1CC2c3ccccc3C1c1ccccc12 (centres undefined)	> 100	> 100	> 100	> 100	> 100	> 24.3	> 100	> 100	> 100	–	–	–	–	–	–	–	–	–	–	–
OC1(c2ccc(Cl)cc2)c2c(ccc3c2OCO3)C2=NCCN21 (centres undefined)	76.7	> 100	> 100	> 100	> 100	> 100	–	21.2	91.8	–	–	–	–	–	–	–	–	–	–	–

SMILES	TGI (HS 578T breast) [µM]	TGI (HCT-15 colon) [µM]	TGI (HOP-62 NSCLC) [µM]	TGI (SNB-19 CNS) [µM]	TGI (UO-31 renal) [µM]	TGI (CCRF-CEM leukemia) [µM]	TGI (NCI-H226 lung) [µM]	TGI (MALME-3M melanoma) [µM]	TGI (MDA-MB-231 breast) [µM]	GI50 (HS 578T breast) [µM]	GI50 (HCT-15 colon) [µM]	GI50 (HOP-62 NSCLC) [µM]	GI50 (UO-31 renal) [µM]	GI50 (CCRF-CEM leukemia) [µM]	GI50 (NCI-H226 lung) [µM]	GI50 (MALME-3M melanoma) [µM]	GI50 (MDA-MB-231 breast) [µM]	TGI (DLD-1 colon) [µM]	TGI (DMS 114 small cell lung) [µM]	GI50 (SNB-19 CNS) [µM]
COc1cc(/C=C2/SC(c3ccccc3)N(c3cccc(Cl)c3)C2=O)cc(OC)c1OC (centres undefined)	> 100	> 100	> 100	> 100	> 100	39.9	> 100	96.5	> 100	–	–	–	–	–	–	–	–	–	–	–
O=C1CS(=O)(=O)C(c2cccc(Oc3ccccc3)c2)N1c1cccc(Cl)c1 (centres undefined)	97	> 100	> 100	> 100	> 100	> 100	> 100	52.6	> 100	–	–	–	–	–	–	–	–	–	–	–
O=c1cc(-c2ccc(O)cc2)n(C2CC2)c2ccccc12	24.8	16.8	21.3	50.1	21.1	72.2	16.4	–	22.2	–	–	–	–	–	–	–	–	–	–	–
CCCCCCCCCCCCCCCc1ccc(OCC(O)CO)cc1 (centres undefined)	–	> 100	> 100	> 100	> 100	> 100	58.5	46.8	–	–	–	–	–	–	–	–	–	> 100	68.3	–
Nc1cc2c(nnn2C2OC(COCc3ccccc3)C(OCc3ccccc3)C2OCc2ccccc2)c(=O)[nH]1 (centres undefined)	> 100	> 100	> 100	> 100	> 100	> 100	53.7	> 100	> 100	–	–	–	–	–	–	–	–	–	–	–
N#Cc1c2c(c(Nc3cccc(C(F)(F)F)c3)n3c1nc1ccccc13)CCC2	–	> 100	> 100	–	–	–	> 100	> 100	> 100	–	–	–	–	–	–	–	–	–	–	–
CS(=O)(=O)OC1CN2CCC1CC2 (centres undefined)	> 100	> 100	> 100	> 100	> 100	> 100	–	> 100	> 100	–	–	–	–	–	–	–	–	–	–	–
Cc1ccc(NP(=O)(Oc2ccccc2)N(CCCl)CCCl)cc1 (centres undefined)	–	> 100	> 100	–	> 100	–	> 100	> 100	–	–	–	–	–	–	–	–	–	> 100	> 100	–
Cc1cc2c(cc1Cl)SC(c1ccccc1)C(=O)NS2(=O)=O (centres undefined)	59.4	64	> 100	–	75.1	> 100	> 100	–	> 100	–	–	–	–	–	–	–	–	–	–	–
N#CC(c1ccnc(Cl)n1)c1nc2ccccc2s1 (centres undefined)	28.4	14.8	56.8	> 75.1	28.4	0.928	> 47.4	> 26.5	12.3	–	–	–	–	–	–	–	–	–	–	–
CC(=O)c1c(SCCN2CCCC2)n(-c2ccccc2)c(=S)n(-c2ccccc2)c1=O	54.2	27.5	55	> 77.1	2.73	4.01	54.1	12.2	23.4	–	–	–	–	–	–	–	–	–	–	–
CCN(CC)CCCC(C)Nc1ccnc2cc3ccccc3cc12 (centres undefined)	> 100	14.4	> 100	84.5	53.9	> 100	> 100	45.1	> 100	–	–	–	–	–	–	–	–	–	–	–
Cc1cccc2cc3c(ccc4ccccc43)c[n+]12	24.6	> 100	> 100	50.9	> 100	> 100	–	5.22	> 100	–	–	–	–	–	–	–	–	–	–	–
Nc1ccc(-c2cssc2=S)cc1	> 100	> 100	> 100	> 100	> 100	–	> 100	> 100	> 100	–	–	–	–	–	–	–	–	–	–	–
Cn1c(-c2cccs2)cc(-c2ccccc2)c1-c1cccs1	> 100	> 100	51.5	47.5	> 100	> 100	> 100	–	> 100	–	–	–	–	–	–	–	–	–	–	–
CC(=O)Nc1ccc(N=C2C(c3ccccc3)=C(SC3=C(c4ccccc4)C(=Nc4ccc(NC(C)=O)cc4)c4ccccc43)c3ccccc32)cc1	–	> 100	> 100	> 100	> 100	> 100	> 100	> 100	> 100	–	–	–	–	–	–	–	–	–	–	–
CN(C)c1nc(N(C)C)nc(N(C)CN(C)c2ccc(Cl)cc2)n1	–	> 100	–	> 100	> 100	> 100	> 100	> 100	–	–	–	–	–	–	–	–	–	> 100	> 100	–
CO/C=C(/C(=O)OC)c1ccccc1[C@@H]1CC1c1cccc(F)c1 (some centres undefined)	> 100	78.1	> 100	> 100	> 100	87.7	> 100	45.9	> 100	–	–	–	–	–	–	–	–	–	–	–
O=C(N/N=C(/COc1ccc(Cl)cc1)N=Cc1cccnc1)c1ccncc1	94.9	> 100	> 100	> 100	–	> 100	> 100	> 100	> 100	–	–	–	–	–	–	–	–	–	–	–
CCN1C=C/C(=C\C=C/c2cc[n+](CC)c3ccccc23)c2ccccc21	24.6	34.1	8.18	15.2	35.6	30.9	16	30.5	9.32	–	–	–	–	–	–	–	–	–	–	–
